Source: the NIST ThermoML archive (doi:10.1021/je050416y)

Assay: xn = mol fraction of the nth substance listed
Conditions: 101 kPa, Liquid; for mass density: Vibrating tube method

CC(C)CCO [3-methylbutan-1-ol] + CCO
Conditions | kinematic viscosity, 293.15 K [m2/s] | kinematic viscosity, 298.15 K [m2/s] | kinematic viscosity, 303.15 K [m2/s] | mass density, 293.15 K [kg/m3] | mass density, 298.15 K [kg/m3] | mass density, 303.15 K [kg/m3] | mass density, 308.15 K [kg/m3]
x1 = 0.0268 | – | – | – | 790.5 | 786.2 | 781.8 | 777.5
x1 = 0.0549 | – | – | – | 791.3 | 787 | 782.7 | 778.4
x1 = 0.0845 | – | – | – | 792.1 | 787.9 | 783.7 | 779.4
x1 = 0.0915 | 1.55e-06 | 1.42e-06 | 1.27e-06 | – | – | – | –
x1 = 0.1156 | – | – | – | 792.9 | 788.8 | 784.6 | 780.4
x1 = 0.1484 | – | – | – | 793.8 | 789.7 | 785.5 | 781.4
x1 = 0.1753 | 1.61e-06 | 1.48e-06 | 1.32e-06 | – | – | – | –
x1 = 0.183 | – | – | – | 794.7 | 790.6 | 786.5 | 782.4
x1 = 0.2524 | 1.68e-06 | 1.54e-06 | 1.38e-06 | – | – | – | –
x1 = 0.2584 | – | – | – | 796.6 | 792.5 | 788.5 | 784.4
x1 = 0.3235 | 1.75e-06 | 1.61e-06 | 1.45e-06 | – | – | – | –
x1 = 0.3433 | – | – | – | 798.5 | 794.5 | 790.5 | 786.5
x1 = 0.3894 | 1.83e-06 | 1.69e-06 | 1.52e-06 | – | – | – | –
x1 = 0.4395 | – | – | – | 800.4 | 796.5 | 792.5 | 788.6
x1 = 0.4505 | 1.93e-06 | 1.78e-06 | 1.61e-06 | – | – | – | –
x1 = 0.5495 | – | – | – | 802.4 | 798.5 | 794.6 | 790.7
x1 = 0.5605 | 2.19e-06 | 2.01e-06 | 1.81e-06 | – | – | – | –
x1 = 0.6567 | 2.51e-06 | 2.28e-06 | 2.05e-06 | – | – | – | –
x1 = 0.6765 | – | – | – | 804.3 | 800.5 | 796.7 | 792.9
x1 = 0.7416 | 2.89e-06 | 2.6e-06 | 2.33e-06 | – | – | – | –
x1 = 0.817 | 3.31e-06 | 2.96e-06 | 2.64e-06 | – | – | – | –
x1 = 0.8247 | – | – | – | 806.3 | 802.6 | 798.7 | 795
x1 = 0.8844 | 3.8e-06 | 3.37e-06 | 2.99e-06 | – | – | – | –
x1 = 0.9451 | 4.35e-06 | 3.84e-06 | 3.38e-06 | – | – | – | –
x1 = 1 | 5e-06 | 4.35e-06 | 3.81e-06 | 808.3 | 804.6 | 800.8 | 797.1
